Laboratory results: article PMC12586182 (Frontiers in Oncology, 2025)

How the values were obtained:
Assay in all cases: Kinase panel profiling at 1 µmol/L (mobility shift assay, Carna)
Type in all cases: biochemical
Settings in all cases: 1 µmol/L of BTK inhibitor
NEK2 = molecular target: T1, NEK2 (Homo sapiens, UniProt P51955)
T1 construct: purchased Carna Biosciences
T1 sequence (P51955 1-445): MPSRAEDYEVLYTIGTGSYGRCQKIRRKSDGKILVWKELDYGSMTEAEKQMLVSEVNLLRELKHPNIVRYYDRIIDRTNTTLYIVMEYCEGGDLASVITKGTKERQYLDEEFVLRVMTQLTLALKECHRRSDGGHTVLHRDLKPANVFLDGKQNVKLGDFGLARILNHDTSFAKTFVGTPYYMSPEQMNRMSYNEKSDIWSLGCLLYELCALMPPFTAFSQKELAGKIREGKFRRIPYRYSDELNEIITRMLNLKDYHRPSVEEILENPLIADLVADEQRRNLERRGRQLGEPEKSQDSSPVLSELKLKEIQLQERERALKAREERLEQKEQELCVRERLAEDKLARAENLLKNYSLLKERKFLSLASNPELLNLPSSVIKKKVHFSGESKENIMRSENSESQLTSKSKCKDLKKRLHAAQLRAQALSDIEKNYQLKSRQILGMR

PHKG1 = molecular target: T2, PHKG1 (Homo sapiens, UniProt Q16816)
T2 construct: purchased Carna Biosciences

PKCι = molecular target: T3, PKCι (Homo sapiens, UniProt P41743)
T3 construct: purchased Carna Biosciences
T3 sequence (P41743 1-596): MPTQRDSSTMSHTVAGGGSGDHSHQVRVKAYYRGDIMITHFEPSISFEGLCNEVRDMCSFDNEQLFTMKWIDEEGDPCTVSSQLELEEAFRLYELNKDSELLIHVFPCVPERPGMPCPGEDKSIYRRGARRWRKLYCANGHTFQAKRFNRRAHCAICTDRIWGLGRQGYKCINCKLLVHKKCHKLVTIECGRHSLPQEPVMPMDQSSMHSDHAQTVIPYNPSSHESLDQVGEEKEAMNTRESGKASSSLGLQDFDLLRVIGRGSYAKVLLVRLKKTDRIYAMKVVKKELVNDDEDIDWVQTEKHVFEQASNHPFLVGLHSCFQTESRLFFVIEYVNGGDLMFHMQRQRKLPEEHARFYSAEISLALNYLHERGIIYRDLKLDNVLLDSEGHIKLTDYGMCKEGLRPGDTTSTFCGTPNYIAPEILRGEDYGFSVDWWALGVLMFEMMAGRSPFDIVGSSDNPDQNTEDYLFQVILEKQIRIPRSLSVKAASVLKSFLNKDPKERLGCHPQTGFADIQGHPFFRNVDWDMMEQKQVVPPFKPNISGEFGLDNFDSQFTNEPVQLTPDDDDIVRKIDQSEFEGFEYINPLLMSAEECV

p38β = molecular target: T4, p38β (Homo sapiens, UniProt Q15759)
T4 construct: purchased Carna Biosciences

PEK = molecular target: T5, PEK (Homo sapiens, UniProt Q9NZJ5)
T5 construct: purchased Carna Biosciences
T5 sequence (Q9NZJ5 30-1116): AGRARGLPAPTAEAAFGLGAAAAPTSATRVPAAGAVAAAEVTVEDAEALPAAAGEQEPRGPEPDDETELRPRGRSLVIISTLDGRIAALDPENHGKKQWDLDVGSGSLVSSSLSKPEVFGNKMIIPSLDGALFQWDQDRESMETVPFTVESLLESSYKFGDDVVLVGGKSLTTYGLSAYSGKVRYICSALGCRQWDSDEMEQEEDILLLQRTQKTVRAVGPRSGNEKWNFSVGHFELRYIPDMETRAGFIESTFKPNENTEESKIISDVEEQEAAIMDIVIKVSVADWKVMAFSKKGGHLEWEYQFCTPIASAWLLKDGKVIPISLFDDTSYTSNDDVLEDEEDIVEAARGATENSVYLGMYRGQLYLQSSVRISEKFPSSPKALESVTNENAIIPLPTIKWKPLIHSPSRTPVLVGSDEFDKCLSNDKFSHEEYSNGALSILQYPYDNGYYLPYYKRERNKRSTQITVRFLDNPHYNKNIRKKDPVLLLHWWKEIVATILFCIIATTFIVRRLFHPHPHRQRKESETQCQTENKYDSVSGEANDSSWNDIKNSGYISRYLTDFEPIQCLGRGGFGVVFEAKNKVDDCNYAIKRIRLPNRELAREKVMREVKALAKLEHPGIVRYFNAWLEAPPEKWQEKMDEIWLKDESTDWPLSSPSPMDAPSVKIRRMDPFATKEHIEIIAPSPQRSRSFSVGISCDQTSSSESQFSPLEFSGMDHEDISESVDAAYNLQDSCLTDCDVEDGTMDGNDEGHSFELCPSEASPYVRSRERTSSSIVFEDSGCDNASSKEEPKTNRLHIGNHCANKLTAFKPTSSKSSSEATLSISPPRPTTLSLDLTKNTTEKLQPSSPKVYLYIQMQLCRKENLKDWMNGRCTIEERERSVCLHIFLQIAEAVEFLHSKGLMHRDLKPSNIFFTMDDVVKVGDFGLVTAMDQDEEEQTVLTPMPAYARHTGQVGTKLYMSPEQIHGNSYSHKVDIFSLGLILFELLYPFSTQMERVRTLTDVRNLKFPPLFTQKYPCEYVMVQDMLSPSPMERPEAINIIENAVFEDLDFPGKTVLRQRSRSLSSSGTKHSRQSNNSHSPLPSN

DDR1 = molecular target: T6, DDR1 (Homo sapiens, UniProt Q08345)
T6 construct: purchased Carna Biosciences
T6 sequence (Q08345 19-913): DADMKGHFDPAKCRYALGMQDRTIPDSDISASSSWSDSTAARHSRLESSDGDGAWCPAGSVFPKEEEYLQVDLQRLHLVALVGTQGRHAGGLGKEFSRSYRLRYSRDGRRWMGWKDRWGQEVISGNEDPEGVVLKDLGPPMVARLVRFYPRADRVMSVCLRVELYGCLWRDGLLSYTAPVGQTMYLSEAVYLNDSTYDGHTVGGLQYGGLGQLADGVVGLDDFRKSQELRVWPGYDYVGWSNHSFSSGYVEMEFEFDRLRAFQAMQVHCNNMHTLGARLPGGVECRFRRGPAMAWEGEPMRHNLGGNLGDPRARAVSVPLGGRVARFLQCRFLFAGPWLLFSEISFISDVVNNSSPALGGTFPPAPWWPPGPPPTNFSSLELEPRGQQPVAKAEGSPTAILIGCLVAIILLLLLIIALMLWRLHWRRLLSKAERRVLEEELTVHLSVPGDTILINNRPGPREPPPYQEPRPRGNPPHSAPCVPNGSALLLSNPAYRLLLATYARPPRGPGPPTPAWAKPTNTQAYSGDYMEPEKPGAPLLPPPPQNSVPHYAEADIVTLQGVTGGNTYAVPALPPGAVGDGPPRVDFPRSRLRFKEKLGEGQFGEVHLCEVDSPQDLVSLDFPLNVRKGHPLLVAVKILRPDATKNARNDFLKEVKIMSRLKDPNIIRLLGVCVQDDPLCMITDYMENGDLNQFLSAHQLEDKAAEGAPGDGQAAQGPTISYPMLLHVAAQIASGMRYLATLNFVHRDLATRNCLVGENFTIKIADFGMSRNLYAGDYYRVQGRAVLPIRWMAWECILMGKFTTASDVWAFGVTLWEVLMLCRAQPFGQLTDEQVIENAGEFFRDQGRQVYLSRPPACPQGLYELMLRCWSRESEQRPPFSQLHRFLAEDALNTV

T2 sequence (Q16816 whole entry): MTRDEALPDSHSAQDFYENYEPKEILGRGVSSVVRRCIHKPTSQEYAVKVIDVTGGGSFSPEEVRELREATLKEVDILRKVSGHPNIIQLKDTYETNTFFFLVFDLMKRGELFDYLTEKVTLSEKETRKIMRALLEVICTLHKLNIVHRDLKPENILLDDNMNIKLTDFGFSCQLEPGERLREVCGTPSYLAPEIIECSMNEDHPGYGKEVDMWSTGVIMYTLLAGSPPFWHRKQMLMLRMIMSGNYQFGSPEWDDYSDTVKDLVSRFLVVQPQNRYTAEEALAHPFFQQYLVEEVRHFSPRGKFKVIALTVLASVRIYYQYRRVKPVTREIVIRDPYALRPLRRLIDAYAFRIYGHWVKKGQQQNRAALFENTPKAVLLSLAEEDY
T4 sequence (Q15759 whole entry): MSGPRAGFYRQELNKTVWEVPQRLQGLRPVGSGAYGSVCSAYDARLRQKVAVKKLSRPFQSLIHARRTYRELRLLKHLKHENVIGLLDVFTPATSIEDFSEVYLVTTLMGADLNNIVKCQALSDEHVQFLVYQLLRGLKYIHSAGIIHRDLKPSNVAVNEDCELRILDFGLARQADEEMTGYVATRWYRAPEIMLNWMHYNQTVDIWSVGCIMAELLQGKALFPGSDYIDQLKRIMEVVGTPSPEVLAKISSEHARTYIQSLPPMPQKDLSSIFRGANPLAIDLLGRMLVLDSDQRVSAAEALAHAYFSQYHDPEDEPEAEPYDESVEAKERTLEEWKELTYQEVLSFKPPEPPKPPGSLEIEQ

Compound	Percentage inhibition of kinase enzyme activity (NEK2)	Percentage inhibition of kinase enzyme activity (PHKG1)	Percentage inhibition of kinase enzyme activity (PKCι)	Percentage inhibition of kinase enzyme activity (p38β)	Percentage inhibition of kinase enzyme activity (PEK)	Percentage inhibition of kinase enzyme activity (DDR1)
CC#CC(=O)N1CCC[C@H]1c1nc(-c2ccc(C(=O)Nc3ccccn3)cc2)c2c(N)nccn12 [acalabrutinib]	-6.35%	-4.16%	-8.38%	-3.08%	8.39%	7.80%
C=CC(=O)N1CCC[C@@H](n2nc(-c3ccc(Oc4ccccc4)cc3)c3c(N)ncnc32)C1 [ibrutinib]	6.64%	1.53%	2.23%	9.06%	7.47%	37.17%
O=C(c1ccc(Oc2ccccc2)cc1Cl)c1c[nH]c2ncnc(N[C@@H]3CC[C@@H](CO)OC3)c12 [nemtabrutinib]	74.64%	7.46%	-1.29%	12.08%	49.66%	93.81%
COc1ccc(F)cc1C(=O)NCc1ccc(-c2nn([C@@H](C)C(F)(F)F)c(N)c2C(N)=O)cc1 [pirtobrutinib]	2.00%	4.81%	0.51%	2.61%	-9.35%	2.52%
